Columns and labels:
XOR = target: T1, XOR (Bos taurus, UniProt P80457); assay: XOR kinetics with phenazine methosulfate / cytochrome c reduction (550 nm); type: biochemical, bovine; conditions: for Types of inhibition / Ki: XOR; for Types of inhibition: PMS
T1 construct: Bovine milk was obtained from the animal farm of the Nippon Veterinary and Life Science University; from tissue; host or cells: bovine milk
Protocol: Therefore, phenazine methosulfate was used to induce direct, rapid reoxidation of the molybdenum center ([22], [23]).
(§1) Bovine milk was obtained from the animal farm of the Nippon Veterinary and Life Science University. […] The dehydrogenase form of the enzyme (XDH) was obtained by reacting XO immediately upon purification with 5 mM DTT at pH 8.5, 25 °C for 1 h. XO and XDH assays were carried out at 25 °C under aerobic conditions. […] A total of 500 μM β-NAD^+ was added to the same reaction solution for XDH activity. Physiological conditions such as pH 7.4 (0.1 M potassium phosphate buffer (KPB), 0.2 mM EDTA) and the addition of 50 μM β-NADH were also used. […] In addition, the enzyme reaction solution was quenched with perchloric acid and neutralized with K2CO3, with products analyzed using HPLC as described below. Spectrophotometric data were analyzed using UV-Probe software Ver. 2.70 or LabSolutions UV-Vis Ver. […] Kinetic parameters were determined from nonlinear curve fits of raw data using GraphPad Prism 9 software.
(§2) A295 indicates the concentration of uric acid yielded by XOR. […] A295 indicates the concentration of uric acid yielded by XOR. Figure S2. The XOR inhibition mode of oxypurinol.A–G, Lineweaver-Burk plots were generated to visualize data and estimated the inhibition patterns. Data are representative of least two independent experiments. […] Figure S3. […] B, mode of inhibition of oxypurinol on the inosine degradation reaction of PNP. […] 0, 250, 375, 500, 750 and 1000 μM of oxypurinol were used. […] The rate of NAD^+ conversion to NADH was measured at A340 nm.

XDH = XDH (Bos taurus, UniProt P80457); assay: initial-velocity steady-state kinetics of XDH, NAD+ as electron acceptor; type: biochemical, bovine; parameters: Bovine milk was obtained from the animal farm of the Nippon Veterinary and Life Science University; from tissue; host or cells: bovine milk; conditions: for Types of inhibition / Ki: XDH; for Types of inhibition: NAD+
Protocol: as §1, with “used. The activity was measured by following 295 nm and 340 nm on a UV-1800 or UV1900i spectrophotometer.” for “used.”
as §2

[1] = cited from earlier work
[2] = system: mouse model of hyperuricemia; assay: mouse model of hyperuricemia (potassium oxonate), plasma purines by HPLC; type: in vivo; conditions: for plasma hypoxanthine levels vs control / plasma xanthine levels vs control: 1 h
Protocol: To compare the inhibitory effect of allopurinol and oxypurinol on uric acid production, mice were treated with oxonate to inhibit uricase and induce hyperuricemia.
Figure 2 Comparison of the effects of allopurinol and oxypurinol in a model of hyperuricemia. […] Statistical analysis was performed using one-way ANOVA and Turkey’s multiple comparison test. ∗p < 0.05, ∗∗p < 0.01, ∗∗∗∗p < 0.0001.
Six-week-old specific-pathogen free-grade male Institute of Cancer Research mice were purchased from Japan SLC. All animal experiments were performed according to the protocol approved by the Animal Care and Ethics Committee of Tokyo University of Pharmacy and Life Sciences (Permit No. P21-80). Mice were housed under conditions of 22 to 24 °C, 40 to 60% humidity, and a 12-h light/12-h dark cycle. Food and water were administered ad libitum.
Oxypurinol or allopurinol was suspended in 0.5% carboxymethyl cellulose and administered intraperitoneally at 3 mg/kg or 10 mg/kg (n = 11). The control group received 0.5% carboxymethyl cellulose (n = 5). Immediately after intraperitoneal administration, potassium oxonate was injected subcutaneously at 300 mg/kg. One hour after administration, mice were sacrificed by cervical dislocation, and blood was collected with heparin. […] Statistical analysis was performed using GraphPad Prism 9 software (www.graphpad.com).
Purine concentrations were measured using a Shimadzu HPLC system consisting of the CBM-20A controller, LC-20AD pump, SIL-20AC autosampler (set at 4 °C), CTO-20A column oven (set at 40 °C), and SPD-M20A diode array detector. Peak analysis was performed using LC solution software. A SUPELCOSIL LC-18-T column (25 cm × 4.6 mm id 5 μm particle size) was used with the SUPELCOSIL LC-18-T Supelguard guard column separation of purines, using a flow rate was 0.8 ml/min and 10 or 20 μl samples. The mobile phase used was A: 0.1 M KPB and 4 mM tetrabutylammonium hydrogen sulfate (pH 5.5), B: 70% buffer A and 30% methanol (v/v). Gradient conditions were 0 min (0% B), 2 min (0% B), 4 min (30% B), 12 min (60% B), 15 min (100% B), 19 min (100% B), 20 min (0% B), and 30 min (0% B). Detection wavelengths were 254 nm, 268 nm, and 295 nm. The data were analyzed using LabSolutions Ver. 5.97 SP1. All purines were identified by retention time and quantified using an external standard.

[3] = as substrate of XOR, electron acceptor PMS, mean ± S.E.
[4] = as substrate of XDH, electron acceptor NAD+, 340 nm, mean ± S.E.
[5] = 3 mg/kg intraperitoneal, 1 h after administration, oxonate-treated mice
[6] = one hour after 3 mg/kg allopurinol intraperitoneal

XDH, sequence (P80457 whole entry): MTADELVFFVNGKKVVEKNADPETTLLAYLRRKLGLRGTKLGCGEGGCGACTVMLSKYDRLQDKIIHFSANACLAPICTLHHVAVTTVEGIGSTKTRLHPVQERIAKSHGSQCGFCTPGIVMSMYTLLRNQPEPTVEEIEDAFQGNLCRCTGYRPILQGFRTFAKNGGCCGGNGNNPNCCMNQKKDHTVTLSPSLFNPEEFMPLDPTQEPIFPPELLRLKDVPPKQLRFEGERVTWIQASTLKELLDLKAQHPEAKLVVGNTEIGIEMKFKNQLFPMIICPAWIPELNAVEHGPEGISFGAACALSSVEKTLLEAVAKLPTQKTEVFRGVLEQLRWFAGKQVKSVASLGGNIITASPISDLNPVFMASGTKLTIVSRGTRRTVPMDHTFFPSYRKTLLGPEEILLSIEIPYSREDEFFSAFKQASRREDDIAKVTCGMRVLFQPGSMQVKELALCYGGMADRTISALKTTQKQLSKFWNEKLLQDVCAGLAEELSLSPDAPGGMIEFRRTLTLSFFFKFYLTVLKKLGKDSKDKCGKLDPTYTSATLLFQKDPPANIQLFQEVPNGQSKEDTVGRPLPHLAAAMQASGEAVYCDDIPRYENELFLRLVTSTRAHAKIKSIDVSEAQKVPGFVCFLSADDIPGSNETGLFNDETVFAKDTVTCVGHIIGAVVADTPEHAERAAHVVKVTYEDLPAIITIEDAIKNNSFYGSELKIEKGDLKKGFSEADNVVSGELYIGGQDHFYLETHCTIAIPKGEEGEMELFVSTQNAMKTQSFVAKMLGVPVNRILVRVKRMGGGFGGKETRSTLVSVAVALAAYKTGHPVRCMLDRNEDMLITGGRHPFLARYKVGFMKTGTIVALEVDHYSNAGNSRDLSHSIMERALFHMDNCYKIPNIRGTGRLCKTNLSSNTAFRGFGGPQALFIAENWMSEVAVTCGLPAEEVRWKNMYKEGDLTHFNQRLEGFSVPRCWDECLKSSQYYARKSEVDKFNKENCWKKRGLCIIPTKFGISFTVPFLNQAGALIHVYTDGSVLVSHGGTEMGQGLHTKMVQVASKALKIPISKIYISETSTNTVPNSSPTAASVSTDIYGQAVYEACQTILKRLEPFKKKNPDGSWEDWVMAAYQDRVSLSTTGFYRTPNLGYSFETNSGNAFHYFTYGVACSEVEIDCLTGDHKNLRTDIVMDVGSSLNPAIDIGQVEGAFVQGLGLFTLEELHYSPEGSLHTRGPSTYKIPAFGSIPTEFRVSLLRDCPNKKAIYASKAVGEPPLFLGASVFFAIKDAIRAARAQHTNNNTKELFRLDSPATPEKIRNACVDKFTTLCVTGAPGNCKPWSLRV
T1 sequence (P80457 whole entry): as above

**Q.** Which results are given for `Oc1ncnc2[nH]ncc12` [Allopurinol]?
**A.** Km (XOR; [3]): 3.59 ± 0.45 µM; kcat (XOR; [3]): 26.17 ± 1.96 s⁻¹; Km (XDH; [4]): 4.23 ± 0.52 µM; kcat (XDH; [4]): 1.83 ± 0.92 s⁻¹; serum oxypurinol concentrations ([1]; patients receiving 300 mg allopurinol daily for more than 2 weeks): greater than 100 μM; plasma hypoxanthine levels vs control ([2]; 3 mg/kg intraperitoneal): significantly increased plasma hypoxanthine levels; plasma xanthine levels vs control ([2]; 3 mg/kg intraperitoneal): xanthine levels were largely unaffected; plasma uric acid levels compared to the control group [2, 5]: significantly decreased plasma uric acid levels; allopurinol in plasma [2, 6]: little allopurinol was detected in the plasma; oxypurinol in plasma [2, 6]: a small amount of oxypurinol was also observed

**Q.** Which results are given for `O=c1[nH]c(=O)c2c[nH]nc2[nH]1` [Oxypurinol]?
**A.** Types of inhibition (XOR; substrate hypoxanthine): Competitive; Ki (XOR; substrate hypoxanthine, electron acceptor PMS, mean ± S.E.): 1.29 ± 0.14 µM; Types of inhibition (XOR; substrate xanthine): Competitive; Ki (XOR; substrate xanthine, electron acceptor PMS, mean ± S.E.): 1.65 ± 0.24 µM; Types of inhibition (XDH; substrate hypoxanthine, 340 nm): Competitive; Ki (XDH; substrate hypoxanthine, electron acceptor NAD+, 340 nm, mean ± S.E.): 3.15 ± 0.22 µM; Types of inhibition (XDH; substrate xanthine, 295 nm): Competitive; Ki (XDH; substrate xanthine, electron acceptor NAD+, 295 nm, mean ± S.E.): 4.6 ± 0.87 µM; oxypurinol concentrations necessary to achieve target serum uric acid levels ([1]; ref Stamp et al. 5, 16): > 100 µmol/L; plasma hypoxanthine levels vs control ([2]; 3 mg/kg intraperitoneal): neither hypoxanthine nor xanthine concentrations were significantly different from the control group; plasma xanthine levels vs control ([2]; 3 mg/kg intraperitoneal): neither hypoxanthine nor xanthine concentrations were significantly different from the control group; plasma uric acid levels compared to the control group [2, 5]: did not significantly reduce plasma uric acid levels; plasma hypoxanthine levels vs control ([2]; 10 mg/kg intraperitoneal): neither hypoxanthine nor xanthine concentrations were significantly different from the control group; plasma xanthine levels vs control ([2]; 10 mg/kg intraperitoneal): neither hypoxanthine nor xanthine concentrations were significantly different from the control group; plasma uric acid levels ([2]; 10 mg/kg intraperitoneal, 1 h after administration, oxonate-treated mice): reduce plasma uric acid to that seen with 3 mg/kg allopurinol

— article PMC10511816 (The Journal of Biological Chemistry, 2023)
